{"source": "patent US20050043369A1", "about": "“Bactericidal antimicrobial methods and compositions for use in treating gram positive infections” (Protez Pharmaceuticals Inc., priority 2000, published 2005)", "origin": "cited, not measured here", "tested_on": "S. aureus (SA1199)", "details": "vancomycin; Jeffrey et al., 1999; cited from earlier work"}
{"smiles": "CN[C@H](CC(C)C)C(=O)N[C@H]1C(=O)N[C@@H](CC(N)=O)C(=O)N[C@H]2C(=O)N[C@H]3C(=O)N[C@H](C(=O)N[C@H](C(=O)O)c4cc(O)cc(O)c4-c4cc3ccc4O)[C@H](O)c3ccc(c(Cl)c3)Oc3cc2cc(c3O[C@@H]2O[C@H](CO)[C@@H](O)[C@H](O)[C@H]2O[C@H]2C[C@](C)(N)[C@H](O)[C@H](C)O2)Oc2ccc(cc2Cl)[C@H]1O", "note": "[vancomycin]", "values": [{"measurement": "time to decrease the viability of S. aureus by 1000-fold", "value": "4 to 8", "unit": "h"}]}
